{"source": "patent US20210128500A1", "about": "“Methods of Treating Conditions Associated with Leaky Gut Barrier” (The Regents of the University of California, priority 2017, published 2021)", "key": {"AMPK α1β1γ1": {"target": "AMPK α1β1γ1 (Homo sapiens, UniProt Q13131+Q9Y478)", "sequence (Q13131 whole entry, canonical isoform)": "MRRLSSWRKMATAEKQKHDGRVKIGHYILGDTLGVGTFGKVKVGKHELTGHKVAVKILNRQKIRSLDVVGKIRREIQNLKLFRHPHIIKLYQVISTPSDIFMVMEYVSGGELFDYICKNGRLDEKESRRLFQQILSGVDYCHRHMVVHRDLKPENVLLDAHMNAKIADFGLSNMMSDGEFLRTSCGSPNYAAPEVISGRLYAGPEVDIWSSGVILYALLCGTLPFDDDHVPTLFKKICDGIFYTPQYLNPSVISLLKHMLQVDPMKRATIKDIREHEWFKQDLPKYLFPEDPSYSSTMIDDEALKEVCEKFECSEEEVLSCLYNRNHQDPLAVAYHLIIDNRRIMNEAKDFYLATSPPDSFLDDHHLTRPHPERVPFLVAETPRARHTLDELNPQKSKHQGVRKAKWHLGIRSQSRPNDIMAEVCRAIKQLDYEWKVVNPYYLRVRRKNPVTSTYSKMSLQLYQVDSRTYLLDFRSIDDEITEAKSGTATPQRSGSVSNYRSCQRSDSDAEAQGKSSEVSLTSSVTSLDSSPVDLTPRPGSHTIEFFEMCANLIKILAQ", "sequence (Q9Y478 whole entry, canonical isoform)": "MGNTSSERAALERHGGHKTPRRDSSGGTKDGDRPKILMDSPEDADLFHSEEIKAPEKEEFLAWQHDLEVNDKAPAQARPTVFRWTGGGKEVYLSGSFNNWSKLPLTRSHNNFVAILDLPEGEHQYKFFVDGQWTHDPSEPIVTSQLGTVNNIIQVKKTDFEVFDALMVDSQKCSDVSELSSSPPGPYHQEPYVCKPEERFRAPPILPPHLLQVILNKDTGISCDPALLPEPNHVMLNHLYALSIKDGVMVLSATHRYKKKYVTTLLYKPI", "sequence (P54619 whole entry partner, canonical isoform)": "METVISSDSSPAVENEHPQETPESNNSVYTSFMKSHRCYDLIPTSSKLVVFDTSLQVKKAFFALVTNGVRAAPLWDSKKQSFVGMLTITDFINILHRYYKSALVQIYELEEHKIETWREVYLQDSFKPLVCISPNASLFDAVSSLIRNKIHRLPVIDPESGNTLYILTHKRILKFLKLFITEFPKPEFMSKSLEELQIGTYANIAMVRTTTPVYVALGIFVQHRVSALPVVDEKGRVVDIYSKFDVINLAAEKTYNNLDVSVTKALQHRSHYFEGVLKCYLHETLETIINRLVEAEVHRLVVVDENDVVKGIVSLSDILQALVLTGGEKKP", "experiment": "AMPK activation by A769662, α1β1γ1 isoform (fold activation, FIG. 18)", "type": "biochemical", "conditions": "estimated"}, "[1]": {"system": "AMPK 32-subunit-containing isoforms", "experiment": "AMPK activation by A769662, 32-subunit-containing isoforms (FIG. 18)", "type": "biochemical"}, "DSS-induced colitis": {"system": "DSS-induced colitis", "experiment": "DSS-induced colitis (FIGS. 20A-20E)", "type": "in vivo", "conditions": "activation of AMPK with A769662"}, "AMPK→pS245GIV axis": {"system": "AMPK→pS245GIV axis", "experiment": "Activity of the AMPK→pS245GIV axis in human EDMs from non-diseased aged colons", "type": "cell-based"}, "high-fat fed mice": {"system": "high-fat fed mice", "conditions": "cited from earlier work"}, "[2]": {"system": "enteroid-derived monolayers (EDMs)", "experiment": "TEER across enteroid-derived monolayers challenged with E. coli K12 (FIG. 4B)", "type": "cell-based, mouse and human", "conditions": "Metformin pre-treatment 1 μM, 18 h; E. coli K12 challenge 8 h", "protocol": "(§1) In FIG. 4B, TEER was measured across EDMs that were pre-treated or not with Metformin (1 μM, 18 h) prior to challenge with E. coli K12 strain for 8 h. Drop in TEER (Y axis) is plotted. A representative experiment is shown. […] Activation of the AMPK→GIV stress polarity axis was monitored using pS245GIV (red). […] Arrowheads=separation of TJs and loss of pS245GIV.\n(§2) Detailed Methods: Isolation of enteroids and generation of enteroid-derived monolayers (EDM): Crypts are isolated from human colonic biopsies by digesting tissue with Collagenase type I (2 mg/ml; Invitrogen), filtered with a cell strainer and washed with medium (DMEM/F12 with HEPES, 10% FBS), as outlined before. The epithelial units are suspended in […] (BD basement membrane matrix). Cell-[…] suspension (15 μl) are placed at the center of the 24-well plate on ice and placed on the incubator upside-down for polymerization (as shown in FIG. 4A). After 10 min, 500 μl of 50% conditioned media (prepared from L-WRN cells with Wnt3a, R-spondin and Noggin) containing 10 μM Y27632 (ROCK inhibitor) and 10 μM SB431542 (an inhibitor for TGF-β type I receptor) is added to the suspension. The medium is changed every 2 days and the enteroids are expanded and frozen in liquid nitrogen. To prepare EDMs, single cells from enteroids in 5% conditioned media are added to diluted […] (1:30) as done before. […]"}, "[3]": {"system": "Mouse intestine-derived EDMs", "experiment": "Tight junction integrity by occludin / pS245GIV staining in EDMs exposed to LPS or H2O2 (FIG. 5)", "type": "cell-based", "conditions": "1 μM Metformin", "protocol": "Mouse intestine-derived EDMs were exposed to indicated amounts of LPS (top) or H2O2 (bottom) after treating them or not with 1 μM Metformin. Fixed monolayers were assessed for TJs by staining for occludin (a TJ marker; green grey scales). Activation of the AMPK→GIV stress polarity axis was monitored using pS245GIV (red grey scales). […] TEER measurements agree with IF findings (not shown)."}, "CLDN2": {"system": "CLDN2", "experiment": "CLDN2 biomarker in response to IBD-associated microbes (FIG. 15)", "type": "cell-based"}, "[4]": {"system": "enteroid-derived monolayers (EDMs)", "experiment": "Tight junction integrity by occludin / pS245GIV staining in EDMs challenged with E. coli (FIG. 4C)", "type": "cell-based, mouse and human", "conditions": "Metformin pre-treatment 1 μM, 18 h; E. coli K12 8 h", "protocol": "as §1, §2"}}, "note": "“Also recorded” adds a separate entry of the source.", "data": [{"smiles": "N#Cc1c(O)c2c(-c3ccc(-c4ccccc4O)cc3)csc2[nH]c1=O", "note": "[A769662]", "values": [{"measurement": "AC50", "setting": "AMPK α1β1γ1", "result": 72.2, "unit": "nM"}, {"measurement": "AC50", "setting": "[1]", "result": "> 40", "unit": "µM"}, {"measurement": "colon length", "setting": "DSS-induced colitis", "result": "preserves colon length"}, {"measurement": "healing of colonic mucosa", "setting": "DSS-induced colitis", "result": "heals colonic mucosa"}]}, {"smiles": "CN(C)C(=N)N=C(N)N", "note": "[Metformin]", "values": [{"measurement": "activity of the AMPK→pS245GIV axis", "setting": "AMPK→pS245GIV axis", "result": "can be increased"}, {"measurement": "endotoxemia", "setting": "high-fat fed mice", "result": "attenuates endotoxemia"}, {"measurement": "gut barrier integrity", "setting": "high-fat fed mice", "result": "enhances gut barrier integrity"}, {"measurement": "insulin signaling", "setting": "high-fat fed mice", "result": "enhances insulin signaling"}, {"measurement": "Drop in TEER", "setting": "[2]", "result": "significantly reduced the drop in TEER"}, {"measurement": "TJ preservation (occludin pattern)", "setting": "[3]; H2O2 stress", "result": "TJs were better preserved; also recorded: protects TJs against stress-induced collapse"}, {"measurement": "TJ preservation (occludin pattern)", "setting": "[3]; LPS stress", "result": "TJs were better preserved; also recorded: protects TJs against stress-induced collapse"}, {"measurement": "increase in the CLDN2 biomarker", "setting": "CLDN2", "result": "prevents the increase"}, {"measurement": "TJ preservation (occludin pattern)", "setting": "[4]", "result": "TJs were better preserved; also recorded: protects TJs against stress-induced collapse"}]}]}
